“Also recorded” adds a separate entry of the source.
Tests used:
PC-3 cells = assay: PC-3 cell invasion through Matrigel; assay type: cell-based; details: Homo sapiens, 72 hours
From the text: The overexpression regulates cell adhesion and migration to and invasion through the extracellular matrix. By blocking the interaction between extracellular matrix components like collagen and α2β1 it is possible to block cancer cell migration and invasion in vitro. Prostate cancer cells (PC-3) expressing α2β1 endogenously were used to test the in vitro anticancer potential of the inhibitors of the present invention.
Invasion of PC-3 cells (CRL-1435, ATCC) through Matrigel was studied using BD Biocoat invasion inserts (BD Biosciences). Inserts were stored at −20° C. Before the experiments inserts were allowed to adjust to the room temperature. 500 μl of serum free media (Ham's F12K medium, 2 mM Lglutamine, 1.5 g/l sodium bicarbonate) was added into the inserts and allowed to rehydrate at 37° C. in cell incubator for two hours. The remaining media was aspirated. PC-3 cells were detached, pelleted and suspended into serum free media (50 000 cells/500 μL). 300 μL of cell suspension was added into the insert in the absence (control) or presence of the inhibitor according to the present invention. Inserts were placed on the 24-well plates; each well containing 700 μL of cell culture media with 3% of fetal bovine serum as chemoattractant. Cells were allowed to invade for 72 hours at 37° C. in cell incubator. Inserts were washed with 700 μL PBS, and fixed with 4% paraformaldehyde for 10 minutes. Paraformaldehyde was aspirated and cells were washed with 700 μL of PBS and inserts were stained by incubation with hematoxylin for 1 minute. The stain was removed by washing the inserts with 700 μL of PBS. Inserts were allowed to dry. Fixed invaded cells were calculated under the microscope. Invasion % was calculated as a comparison to the control.

whole blood = assay: PFA-100 platelet function analyzer, closure time of whole blood; assay type: cell-based; details: PFA-100 analysis, collagen and ADP membrane
Description: The PFA-100 is a high shear-inducing device that simulates primary haemostasis after injury of a small vessel. The system comprises a test-cartridge containing a biologically active membrane coated with collagen and ADP. An anticoaculated whole blood sample was run through a capillary under a constant vacuum. […] The time required to obtain full occlusion of the aperture was designated as the closure time. Each compound was added to the whole blood sample and the closure time was measured with PFA-100.
Blood was collected from a donor via venipuncture into evacuated blood collection Lithium heparin tubes (VenoJect, Terumo). Blood was aliquoted into 1.5 mL tubes and treated with either inhibitory compounds or controls (DMSO). Samples were kept at room temperature with rotation for 10 minutes and after that the closure time (Ct) of the blood was measured.

[1] = tested on: platelet adhesion to collagen; assay: Cellix microfluidic system: platelet adhesion to collagen coated capillary under flow; assay type: cell-based, human; parameters: key to Inhibition of platelet adhesion to collagen: + indictes that the compound efficiently inhibited the platelet adhesion to collagen; details: for Inhibition of platelet adhesion to collagen: whole blood, collagen coated capillary, shear 90 dynes/cm^2
Description: Cellix microfluidic platform models human blood vessels providing a dynamic set-up mimicking physiological conditions to test new therapeutic agents (Cellix Ltd). The platform was used to measure the platelet adhesion to collagen coated capillary under flow. An anti-coaculated whole blood sample was run through a collagen coated capillary under a constant shear and the size of thrombi on capillary wall was analyzed with analysis program (DucoCell, Cellix Ltd).
The capillary were coated with Horm collagen 20 μg/mL (Nycomed) and incubated for 24 h in +4° C. Background was blocked with 1% BSA (bovine serum albumin, Sigma) treatment for 30 min in room temperature. Blood was collected from a donor into blood collection tubes containing 40 μM PPACK (Dphenylalanyl-L-prolyl-L-arginine chloromethyl-ketone, Calbiochem) as anticoagulant. Blood was treated either with inhibitory compounds or vehicle controls. Samples were kept at room temperature for 5 minutes. The samples were run through the capillary with the constant shear rate (90 dynes/cm^2, Mirus 1.0 Nanopump, Cellix Ltd) for 5 min and capillary was washed with JNL buffer (6 mM Dextrose, 0.13 M NaCl, 9 mM Na Bicarb, 10 mM Na Citrate, 10 mM Tris base, 3 mM KCl, 0.81 mM KH2PO4, 0.9 mM MgCl2; pH was adjusted to 7.35 with 19 mM Citrate acid anhydrous, 37 mM Sodium citrate, 67 mM Dextrose) with the constant shear rate (90 dynes/cm^2) for 2 min. After that the average thrombi area on the capillary wall was analyzed with DucoCell analysis program (Cellix Ltd).

IL-6 = assay: LPS-induced IL-6 release in whole blood; assay type: cell-based, human; details: LPS 0.25 ng/mL, 2 h
Description: The inflammatory cells are shown to be dependent on α2β1 function during inflammatory process. The anti-inflammatory potential of the α2β1 modulators was studied by measuring the effect on the release of cytokines like IL-6 as an example from inflammatory cells. Lipopolysaccharide (LPS) was used to induce the production of IL-6. Anticoaculated whole blood sample was incubated with or without the integrin α2β1 inhibitor before LPS was added to induce the cytokine release. The amount of cytokine IL-6 released from peripheral blood leukocytes was measured from plasma samples 2 hours after the induction.
Blood was collected from the donors via venipuncture into evacuated Lithium heparin tubes (VenoJect, Terumo). Blood was treated with either α2β1 integrin inhibitors or vehicle control (DMSO). Samples were kept at room temperature for 5 minutes and lipopolysaccharide (LPS, 0.25 ng/mL) was added to induce cytokine release from peripheral blood lymphocytes. Samples were inculabted for 2 h in 37° C., the plasma was isolated and the amount of IL-6 was determined with Human IL-6 Quantikine ELISA Kit (R&D Systems).

## CN(c1ccc(NC(=O)Nc2ccccc2)cc1)S(=O)(=O)c1cccc(-c2ccc(F)cc2)c1 [Compound B55]
PC-3 cells
  inhibition at 5 µM: 76%

## O=C(Nc1ccccc1)Nc1ccc(NS(=O)(=O)c2cccc(-c3ccc(F)cc3)c2)cc1 [Compound B94]
Whole blood
  closure time (Ct) of the whole blood: increases the closure time (Ct)
PC-3 cells
  inhibition at 5 µM: 40%
[1]
  Inhibition of platelet adhesion to collagen: +

## CN(c1ccc(NC(=O)Nc2ccccc2)cc1)S(=O)(=O)c1cncc(-c2ccc(F)cc2)c1 [Compound B52]
PC-3 cells
  inhibition at 5 µM: 25%

## Cc1nn(-c2ccc(F)cc2)c(C)c1S(=O)(=O)N(CCCO)c1ccc(NC(=O)Nc2ccccc2)cc1 [Compound B54]
[1]
  Inhibition of platelet adhesion to collagen: +

## COc1ccc(-n2cc(S(=O)(=O)N(C)c3ccc(NC(=O)Nc4ccccc4)cc3)cn2)cn1 [Compound B109]
[1]
  Inhibition of platelet adhesion to collagen: +

## COCCOc1cccc(NC(=O)Nc2ccc(NS(=O)(=O)c3cccc(-c4ccc(F)cc4)c3)cc2)c1 [Compound B60]
PC-3 cells
  inhibition at 5 µM: 70%
[1]
  Inhibition of platelet adhesion to collagen: +

## O=C(Nc1ccncc1)Nc1ccc(NS(=O)(=O)c2cccc(-c3ccc(F)cc3)c2)cc1 [Compound B93]
[1]
  Inhibition of platelet adhesion to collagen: +

## CN(c1ccc(NC(=O)Nc2ccccc2)cc1)S(=O)(=O)c1ccc(-c2ccnn2C)s1 [Compound B6]
IL-6
  release of IL-6 after induction with LPS: decreases the release of cytokines like IL-6

## CN(c1ccc(NC(=O)Nc2ccccc2)cc1)S(=O)(=O)c1ccc(-n2ccnc2)s1 [Compound B17]
[1]
  Inhibition of platelet adhesion to collagen: +

## O=C(Nc1ccccc1)Nc1ccc(N(CCCO)S(=O)(=O)c2cccc(-c3ccc(F)cc3)c2)cc1 [Compound B33]
[1]
  Inhibition of platelet adhesion to collagen: +

## CN(c1ccc(NC(=O)Nc2ccccc2)cc1)S(=O)(=O)c1cc(C(F)(F)F)ccc1Cl [Compound B80]
PC-3 cells
  inhibition at 5 µM: 43%

## CN(c1ccc(NC(=O)Nc2ccccc2)cc1)S(=O)(=O)c1cnn(-c2ccc(F)cn2)c1 [Compound B1]
[1]; Cellix analysis, flow conditions
  platelet adhesion to collagen coated capillary under flow (FIG. 1): dose dependent inhibitory effect; also recorded: inhibits the platelet adhesion to collagen coated capillary under mimicking physiological flow conditions dose dependently
[1]
  Inhibition of platelet adhesion to collagen: +

## O=C(Nc1ccccc1)Nc1ccc(Cl)c(NS(=O)(=O)c2cccc(-c3ccc(F)cc3)c2)c1 [Compound B86]
PC-3 cells
  inhibition at 5 µM: 44%

## CN(c1ccc(NC(=O)Nc2ccccc2)cc1)S(=O)(=O)c1ccc(Cl)cc1Cl [Compound B77]
PC-3 cells
  inhibition at 5 µM: 40%

## CN(c1ccc(NC(=O)Nc2ccccc2)cc1)S(=O)(=O)c1cccc(C#N)c1 [Compound B78]
PC-3 cells
  inhibition at 5 µM: 30%
[1]
  Inhibition of platelet adhesion to collagen: +

## Cc1ccc(NC(=O)NCc2ccccc2)cc1NS(=O)(=O)c1cccc(-c2ccc(F)cc2)c1 [Compound B67]
PC-3 cells
  inhibition at 5 µM: 10%
[1]
  Inhibition of platelet adhesion to collagen: +

## Cc1ccccc1NC(=O)Nc1ccc(C)c(NS(=O)(=O)c2cccc(-c3ccc(F)cc3)c2)c1 [Compound B42]
[1]
  Inhibition of platelet adhesion to collagen: +

## Cc1ccc(NC(=O)Nc2ccccc2)cc1NS(=O)(=O)c1cccc(-c2ccc(F)cc2)c1 [Compound B40]
PC-3 cells
  inhibition at 5 µM: 98%
[1]
  Inhibition of platelet adhesion to collagen: +

## Cc1ccccc1NC(=O)Nc1ccc(NS(=O)(=O)c2cccc(-c3ccc(F)cc3)c2)cc1 [Compound B64]
PC-3 cells
  inhibition at 5 µM: 42%

## CN(c1ccc(NC(=O)Nc2ccccc2)cc1)S(=O)(=O)c1ccc(-c2cc(C(F)(F)F)nn2C)s1 [Compound B19]
[1]
  Inhibition of platelet adhesion to collagen: +

## CN(c1ccc(NC(=O)Nc2ccccc2)cc1)S(=O)(=O)c1ccc(-c2ccccn2)s1 [Compound B11]
[1]
  Inhibition of platelet adhesion to collagen: +

## CN(c1ccc(NC(=O)Nc2ccccc2)cc1)S(=O)(=O)c1cccc(OC(F)F)c1 [Compound B68]
PC-3 cells
  inhibition at 5 µM: 29%

## COc1ccc(NC(=O)Nc2ccc(NS(=O)(=O)c3cccc(-c4ccc(F)cc4)c3)cc2)cc1 [Compound B72]
PC-3 cells
  inhibition at 5 µM: 39%

## CN(C)c1ccc(-c2ccc(S(=O)(=O)N(C)c3ccc(NC(=O)Nc4ccccc4)cc3)s2)cn1 [Compound B7]
[1]
  Inhibition of platelet adhesion to collagen: +

## CN(c1ccc(NC(=O)Nc2ccccc2)cc1)S(=O)(=O)c1cnn(-c2ccc(F)cc2)c1 [Compound B3]
[1]
  Inhibition of platelet adhesion to collagen: +

## O=C(Nc1ccccc1)Nc1cc(NS(=O)(=O)c2cccc(-c3ccc(F)cc3)c2)ccc1Cl [Compound B47]
PC-3 cells
  inhibition at 5 µM: 96%

## Cc1ccc(NC(=O)Nc2ccccc2)cc1N(C)S(=O)(=O)c1cccc(-c2ccc(F)cc2)c1 [Compound B63]
PC-3 cells
  inhibition at 5 µM: 45%

## O=C(NCc1ccccc1)Nc1ccc(NS(=O)(=O)c2cccc(-c3ccc(F)cc3)c2)cc1 [Compound B91]
PC-3 cells
  inhibition at 5 µM: 56%

## CN(c1ccc(NC(=O)Nc2ccncc2)cc1)S(=O)(=O)c1cccc(-c2ccc(F)cc2)c1 [Compound B75]
PC-3 cells
  inhibition at 5 µM: 38%

— US20120196884A1, “UREA SUBSTITUTED SULPHONAMIDE DERIVATIVES” (BIOTIE THERAPIES CORPORATION, priority 2009, published 2012)
